From article PMC4589357, “The Role of Electrostatic Interactions in Binding of Histone H3K4me2/3 to the Sgf29 Tandem Tudor Domain” (PLoS ONE, 2015)
“And” between values parts separate entries of the source, which are not always exact repeats. Equal entries are not always repeated.

Legend:
Sgf29 D266A = target: T1, Sgf29 D266A (Homo sapiens, UniProt Q96ES7, D266A); test: ITC binding of histone peptides to Sgf29 D266A
T1 construct: 6xHis (cleaved yes); made in house; host or cells: E. coli Rosetta BL21 DE3 PlysS
T1 sequence (Q96ES7 115-293 D266A): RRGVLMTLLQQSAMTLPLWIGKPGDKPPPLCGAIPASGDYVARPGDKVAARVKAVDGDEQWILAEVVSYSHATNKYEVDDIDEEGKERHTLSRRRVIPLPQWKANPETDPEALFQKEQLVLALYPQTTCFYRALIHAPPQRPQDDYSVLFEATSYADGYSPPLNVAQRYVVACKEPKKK

Sgf29 D266Y = target: T2, Sgf29 D266Y (Homo sapiens, UniProt Q96ES7, D266Y); test: ITC binding of histone peptides to Sgf29 D266Y
T2 construct: 6xHis (cleaved yes); made in house; host or cells: E. coli Rosetta BL21 DE3 PlysS
T2 sequence (Q96ES7 115-293 D266Y): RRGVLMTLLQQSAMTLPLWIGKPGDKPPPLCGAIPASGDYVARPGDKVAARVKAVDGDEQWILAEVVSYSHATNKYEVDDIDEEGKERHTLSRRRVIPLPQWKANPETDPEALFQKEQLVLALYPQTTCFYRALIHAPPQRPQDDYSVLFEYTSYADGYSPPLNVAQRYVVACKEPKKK

Sgf29 Y245F = target: T3, Sgf29 Y245F (Homo sapiens, UniProt Q96ES7, Y245F); test: ITC binding of histone peptides to Sgf29 Y245F
T3 construct: 6xHis (cleaved yes); made in house; host or cells: E. coli Rosetta BL21 DE3 PlysS
T3 sequence (Q96ES7 115-293 Y245F): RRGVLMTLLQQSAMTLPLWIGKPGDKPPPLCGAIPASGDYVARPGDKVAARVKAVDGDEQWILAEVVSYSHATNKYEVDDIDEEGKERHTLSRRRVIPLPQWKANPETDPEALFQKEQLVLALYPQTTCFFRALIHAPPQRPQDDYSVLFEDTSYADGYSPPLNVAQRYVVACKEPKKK

Sgf29 D266W = target: T4, Sgf29 D266W (Homo sapiens, UniProt Q96ES7, D266W); test: ITC binding of histone peptides to Sgf29 D266W
T4 construct: 6xHis (cleaved yes); made in house; host or cells: E. coli Rosetta BL21 DE3 PlysS
T4 sequence (Q96ES7 115-293 D266W): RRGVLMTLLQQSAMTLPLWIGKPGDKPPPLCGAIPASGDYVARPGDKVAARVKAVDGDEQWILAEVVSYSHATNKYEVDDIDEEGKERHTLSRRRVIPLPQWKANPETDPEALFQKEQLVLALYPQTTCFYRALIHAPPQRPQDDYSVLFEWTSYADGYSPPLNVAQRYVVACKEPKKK

Sgf29 Y238F = target: T5, Sgf29 Y238F (Homo sapiens, UniProt Q96ES7, Y238F); test: ITC binding of histone peptides to Sgf29 Y238F
T5 construct: 6xHis (cleaved yes); made in house; host or cells: E. coli Rosetta BL21 DE3 PlysS
T5 sequence (Q96ES7 115-293 Y238F): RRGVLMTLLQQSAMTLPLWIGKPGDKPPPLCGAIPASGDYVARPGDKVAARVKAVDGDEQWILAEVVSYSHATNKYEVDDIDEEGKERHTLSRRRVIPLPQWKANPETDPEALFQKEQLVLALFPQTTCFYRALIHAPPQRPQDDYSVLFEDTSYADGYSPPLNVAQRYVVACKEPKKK

[1] = target: T6, tandem tudor domain of Sgf29, WT (Homo sapiens, UniProt Q96ES7); test: ITC binding of histone peptides to WT Sgf29
T6 construct: 6xHis (cleaved yes); made in house; host or cells: E. coli Rosetta BL21 DE3 PlysS
T6 sequence (Q96ES7 115-293): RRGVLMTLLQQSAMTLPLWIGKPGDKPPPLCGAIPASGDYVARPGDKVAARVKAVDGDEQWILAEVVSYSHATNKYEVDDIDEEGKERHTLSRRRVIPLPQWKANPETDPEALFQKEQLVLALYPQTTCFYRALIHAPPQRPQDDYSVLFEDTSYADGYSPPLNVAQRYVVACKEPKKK

Sgf29 D266F = target: T7, Sgf29 D266F (Homo sapiens, UniProt Q96ES7, D266F); test: ITC binding of histone peptides to Sgf29 D266F
T7 construct: 6xHis (cleaved yes); made in house; host or cells: E. coli Rosetta BL21 DE3 PlysS
T7 sequence (Q96ES7 115-293 D266F): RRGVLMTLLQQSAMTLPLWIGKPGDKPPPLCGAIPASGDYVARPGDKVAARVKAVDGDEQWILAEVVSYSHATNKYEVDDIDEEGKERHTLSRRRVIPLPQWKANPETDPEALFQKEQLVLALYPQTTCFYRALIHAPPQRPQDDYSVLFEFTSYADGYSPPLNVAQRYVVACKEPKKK

Sgf29 D266E = target: T8, Sgf29 D266E (Homo sapiens, UniProt Q96ES7, D266E); test: ITC binding of histone peptides to Sgf29 D266E
T8 construct: 6xHis (cleaved yes); made in house; host or cells: E. coli Rosetta BL21 DE3 PlysS
T8 sequence (Q96ES7 115-293 D266E): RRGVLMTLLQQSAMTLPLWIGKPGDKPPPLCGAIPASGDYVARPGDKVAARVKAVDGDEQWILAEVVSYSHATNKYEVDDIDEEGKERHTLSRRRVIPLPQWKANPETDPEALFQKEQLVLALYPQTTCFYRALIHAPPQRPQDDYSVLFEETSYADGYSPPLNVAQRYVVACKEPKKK

Sgf29 D266N = target: T9, Sgf29 D266N (Homo sapiens, UniProt Q96ES7, D266N); test: ITC binding of histone peptides to Sgf29 D266N
T9 construct: 6xHis (cleaved yes); made in house; host or cells: E. coli Rosetta BL21 DE3 PlysS
T9 sequence (Q96ES7 115-293 D266N): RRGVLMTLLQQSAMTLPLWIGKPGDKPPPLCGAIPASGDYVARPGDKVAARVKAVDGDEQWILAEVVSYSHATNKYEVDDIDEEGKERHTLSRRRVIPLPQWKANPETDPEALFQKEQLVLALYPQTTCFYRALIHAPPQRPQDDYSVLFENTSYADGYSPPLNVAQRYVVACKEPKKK

[2] = D266A, TRIS pH 8.0, ± SD (2–4 repeats)
[3] = D266Y, TRIS pH 8.0, ± SD (2–4 repeats)
[4] = Y245F, TRIS pH 8.0, ± SD (2–4 repeats)
[5] = Y238F, TRIS pH 8.0, ± SD (2–4 repeats)
[6] = WT Sgf29, TRIS pH 8.0, ± SD (2–4 repeats)
[7] = D266F, TRIS pH 8.0, ± SD (2–4 repeats)
[8] = D266E, TRIS pH 8.0, ± SD (2–4 repeats)
[9] = D266N, TRIS pH 8.0, ± SD (2–4 repeats)

C[C@H](N)C(=O)N[C@@H](CCCNC(=N)N)C(=O)N[C@H](C(=O)N[C@@H](CCCC[N+](C)(C)C)C(=O)N[C@@H](CCC(N)=O)C(=O)N[C@H](C(=O)N[C@@H](C)C(=O)N[C@@H](CCCNC(=N)N)C(=O)N[C@@H](CCCCN)C(=O)N[C@@H](CO)C(N)=O)[C@@H](C)O)[C@@H](C)O [H3K4me3]
more unfavorable ΔH° (difference) (Sgf29 D266A; D266A relative to WT Sgf29): 1.7 kcal/mol | reduction in binding affinity (Sgf29 D266A; D266A relative to WT Sgf29): 8 fold | -TΔS° (Sgf29 D266A; [2]): 0.1 ± 0.1 kcal/mol | ΔG° (Sgf29 D266A; [2]): -6.3 ± 0.1 kcal/mol | ΔH° (Sgf29 D266A; [2]): -6.4 ± 0.1 kcal/mol | decrease in enthalpy (Sgf29 D266Y; D266Y relative to WT Sgf29): 3.3 kcal/mol | increase in entropy (Sgf29 D266Y; D266Y relative to WT Sgf29): about 2.1 kcal mol^-1 | -TΔS° (Sgf29 D266Y; [3]): -1.4 ± 0.3 kcal/mol | ΔG° (Sgf29 D266Y; [3]): -6.2 ± 0.1 kcal/mol | ΔH° (Sgf29 D266Y; [3]): -4.8 ± 0.2 kcal/mol | reduced binding affinity (Sgf29 Y245F; Y245F relative to WT Sgf29): 4.5 fold | -TΔS° (Sgf29 Y245F; [4]): -0.7 ± 0.1 kcal/mol | ΔG° (Sgf29 Y245F; [4]): -6.6 ± 0.1 kcal/mol | ΔH° (Sgf29 Y245F; [4]): -5.9 ± 0.1 kcal/mol | binding (in words) (Sgf29 D266W): abrogated | thermodynamic profile (in words) (Sgf29 Y238F; Y238F variants with altered or similar CD spectra, compared to WT Sgf29): indistinguishable thermodynamic profiles | -TΔS° (Sgf29 Y238F; [5]): 0.7 ± 0.1 kcal/mol | ΔG° (Sgf29 Y238F; [5]): -7.4 ± 0.1 kcal/mol | ΔH° (Sgf29 Y238F; [5]): -8.1 ± 0.1 kcal/mol | -TΔS° less favorable relative to Sgf29-H3K4me2, by ([1]; H3K4me3 vs H3K4me2, WT Sgf29): 0.7 kcal/mol | ΔH° more favorable relative to Sgf29-H3K4me2, by ([1]; H3K4me3 vs H3K4me2, WT Sgf29): 0.9 kcal/mol | -TΔS° [1, 6]: 0.6 kcal/mol and 0.6 ± 0.2 kcal/mol | ΔG° [1, 6]: -7.5 ± 0.1 kcal/mol | ΔH° [1, 6]: -8.1 kcal/mol and -8.1 ± 0.2 kcal/mol | decrease in ΔH° (Sgf29 D266F; D266F relative to WT Sgf29): 4.6 kcal/mol | more favorable -TΔS° (difference) (Sgf29 D266F; D266F relative to WT Sgf29): 3.1 kcal/mol | reduction in binding affinity (Sgf29 D266F; D266F relative to WT Sgf29): 14 fold | -TΔS° (Sgf29 D266F; [7]): -2.5 ± 0.1 kcal/mol | ΔG° (Sgf29 D266F; [7]): -5.9 ± 0.1 kcal/mol | ΔH° (Sgf29 D266F; [7]): -3.4 ± 0.2 kcal/mol | binding affinity (in words) (Sgf29 D266E; D266E relative to WT Sgf29): virtually indistinguishable binding affinities | -TΔS° (Sgf29 D266E; [8]): 1.6 ± 0.1 kcal/mol | ΔG° (Sgf29 D266E; [8]): -7.4 ± 0.1 kcal/mol | ΔH° (Sgf29 D266E; [8]): -9.0 ± 0.1 kcal/mol | decrease in binding affinity (Sgf29 D266N; D266N relative to WT Sgf29): 8 fold | increase in entropy / -TΔS° (Sgf29 D266N; D266N relative to WT Sgf29): 0.7 kcal/mol | -TΔS° (Sgf29 D266N; [9]): -0.1 ± 0.1 kcal/mol | ΔG° (Sgf29 D266N; [9]): -6.3 kcal/mol and -6.3 ± 0.1 kcal/mol | ΔH° (Sgf29 D266N; [9]): -6.2 ± 0.1 kcal/mol
